Data from patent publication US20180113119A1, “METHODS FOR CHARACTERIZING TIME-BASED HEPATOTOXICITY” (HUREL CORPORATION, priority 2015, published 2018).
Like-named read-outs stand apart in the source and are kept apart here.

What was measured:
[1] = system: hepatocyte-stromal cell cocultures comprising dog primary hepatocytes
Protocol: (§1) Cell viability was analyzed using a CellTiter-Blue (Promega) assay, n=4.
(§2) These are concentration dependent toxicity curves generated after 6 days of repeat compound exposure in the 4 different species. Each compound was dosed every 2 days starting on day 0. On the 6th day the Promega Celltiter blue assay was used to measure the conversion of resazurin to the fluorescent resorufin.
(§3) Cryopreserved human hepatocytes were obtained from Thermo Fisher (formerly Life Technologies Corporation). Cryopreserved non-human primate (cynomolgus monkey) hepatocytes were obtained from Thermo Fisher (formerly Life Technologies Corporation). Cryopreserved dog hepatocytes were obtained from IVT Bioreclamation. Cryopreserved rat hepatocytes were obtained from Thermo Fisher (formerly Life Technologies Corporation). The cryopreserved hepatocytes were removed from liquid nitrogen and thawed. After thawing, cells were re-suspended in medium and cell number and cell viability was determined using trypan blue exclusion. Stromal cells were passed in a CO2 incubator until used for experimental plating. On plating day cells were detached from the plate, washed, and re-suspended in medium. Cell number and viability were determined using trypan blue exclusion.
(§4) The stromal cells were growth arrested prior to seeding.
(§5) The graphs in FIGS. 11-13 present concentration dependent toxicity curves generated after 6 days of repeat compound exposure in human, dog, primate, and rat. Each compound was dosed every two days for treatment periods of two days, four days, and six days across a full range of concentrations. On the sixth day a Promega Celltiter blue assay was used to measure mitochondrial metabolic activity. That data was then used to generate a TC50 value. […] In FIG. 11 cyclophosphamide was administered every two days for treatment periods of two days, four days, and six days across a full range of concentrations.

[2] = system: hepatocyte-stromal cell cocultures comprising human primary hepatocytes
Protocol: as §1, §2, §3, §4, §5

[3] = system: hepatocyte-stromal cell cocultures comprising primate primary hepatocytes
Protocol: as §1, §2, §3, §4, §5

[4] = system: hepatocyte-stromal cell cocultures comprising rat primary hepatocytes
Protocol: as §1, §2, §3, §4, §5

[5] = known profile of reference compound; cited from earlier work

O=P1(N(CCCl)CCCl)NCCCO1 (stereo not shown) [Cyclophosphamide]
LC50 (TC50) ([1]; Dog, 6 days of repeat exposure, dosed every 2 days, Celltiter blue): 7,541 μM | effect of multiple dosing on cytotoxicity (cell viability) ([1]; dog, treatment periods of two, four and six days, CellTiter-Blue, n=4): extending the duration of dosing increases the cyclophosphamide cytotoxicity | LC50 (TC50) ([2]; Human, 6 days of repeat exposure, dosed every 2 days, Celltiter blue): 5,523 μM | effect of multiple dosing on cytotoxicity (cell viability) ([2]; human, treatment periods of two, four and six days, CellTiter-Blue, n=4): extending the duration of dosing increases the cyclophosphamide cytotoxicity | LC50 (TC50) ([3]; Monkey, 6 days of repeat exposure, dosed every 2 days, Celltiter blue): 1,904 μM | effect of multiple dosing on cytotoxicity (cell viability) ([3]; primate, treatment periods of two, four and six days, CellTiter-Blue, n=4): extending the duration of dosing increases the cyclophosphamide cytotoxicity | LC50 (TC50) ([4]; Rat, 6 days of repeat exposure, dosed every 2 days, Celltiter blue): 1,506 μM | effect of multiple dosing on cytotoxicity (cell viability) ([4]; rat, treatment periods of two, four and six days, CellTiter-Blue, n=4): extending the duration of dosing increases the cyclophosphamide cytotoxicity

COc1ccccc1Oc1c(NS(=O)(=O)c2ccc(C(C)(C)C)cc2)nc(-c2ncccn2)nc1OCCO [bosentan]
LC50 (TC50) at 24 hours (human hepatocytes): 757 µM | known in vivo hepatotoxicity [5]: strong in vivo hepatotoxicity

CN(C)CCCN1c2ccccc2Sc2ccc(Cl)cc21 [chlorpromazine]
LC50 (TC50) at 24 hours (human hepatocytes): 21 µM

CC(C)NCC(O)COc1cccc2ccccc12 (stereo not shown) [propranolol]
known in vivo hepatotoxicity [5]: lack of hepatotoxicity

Cc1c(C)c2c(c(C)c1O)CCC(C)(COc1ccc(CC3SC(=O)NC3=O)cc1)O2 (stereo not shown) [Troglitazone]
LC50 (TC50) ([1]; dog, 6 days): 267 µM | LC50 (TC50) ([2]; human, 6 days): 308 µM | LC50 (TC50) ([3]; cynomolgus monkey, 6 days): 207 µM | LC50 (TC50) ([4]; rat, 6 days): 317 µM
